Source: patent US9428508B2, “2,4-diamino-6,7-dihydro-5H-pyrrolo[2,3]pyrimidine derivatives as FAK/Pyk2 inhibitors” (Centaurus BioPharma Co., Ltd., priority 2011, dated 2016)

Experiments:
FAK = FAK (Homo sapiens (Human), UniProt Q05397); test: Biochemical assay for FAK activity (LANCE TR-FRET, ULight-poly Glu,Ala,Tyr substrate); conditions: GST-tagged FAK, 120 min reaction
Experimental: (§1) Biochemical Assay for FAK/Pyk2 Activity
(§2) GST-tagged FAK was purchased from Invitrogen (PV3832). GST-tagged PYK2 was purchased from Invitrogen (PV4567). The activity of FAK/PYK2 was measured by monitoring the phosphorylation of a fluorophore labeled ULight-poly Glu, Ala, Tyr (1:1:1) peptide substrate from Perkin Elmer (TRF0101) in the presence of ATP. The phosphorylated tyrosine residue was recognized by a LANCE Europium chelate labeled anti-phosphotyrosine (PY20) antibody from Perkin Elmer (AD0066). This brought the fluorophore and europium chelate in close proximity ([…]) that upon excitation at 320 nm by an Envision (PerkinElmer), energy can be transferred from the donor Europium chelate to the acceptor fluorophore. […] The strength of the signal was, therefore, directly proportional to the FAK/PYK2 activity.
(§3) To measure inhibitory activity of FAK/PYK2 inhibitors, compounds were first prepare as a 1 mM stock in 100% DMSO and 3-fold serial dilution was performed in a 96-well plate (Corning, 3897) to generate 12 different concentration of 100× stock. A 5 μl of 100× stock of each concentration was added to wells containing 95 μl of 1× reaction buffer (40 mM Tris, pH7.5, […], 1 mM DTT and 1 mM CHAPS) to generate 5× stock. Then 2 μl of 5× stock of each concentration was added to a 384 wells-OptiPlate (PerkinElmer, 6007299).
(§4) For FAK, 4 μl of 2.5 nM FAK, 1 ul of 8 μg/μl BSA and 1.5 μl of 666 nM ULight-poly Glu, Ala, Tyr (1:1:1) peptide substrate, prepared in above reaction buffer, were added to each well. The reaction was initiated by adding 1.5 μl of 33.3 μM ATP. The reaction was allowed to proceed for 120 min before being quenched with 5 μl of 40 mM EDTA stop buffer prepared in 1×LANCE detection buffer (PerkinElmer, CR97-100).
(§5) Upon quenching of the reaction, 5 μl of 8 nM anti-phosphotyrosine antibody was added to each well and incubated for 60 minutes. The plate was measured using an Envision (PerkinElmer) based on the theory mentioned above.

PYK2 = PYK2 (Homo sapiens (Human), UniProt Q14289); test: Biochemical assay for PYK2 activity (LANCE TR-FRET, ULight-poly Glu,Ala,Tyr substrate); conditions: GST-tagged PYK2, 40 min reaction
Experimental: as §1, §2, §3
as §4, with “PYK2, 5” for “FAK, 4”, “2” for “2.5”, “PYK2” for “FAK, 1 ul of 8 μg/μl BSA”, “46.6” for “33.3”, “40” for “120”
as §5

Chain of FAK (Q05397 whole entry): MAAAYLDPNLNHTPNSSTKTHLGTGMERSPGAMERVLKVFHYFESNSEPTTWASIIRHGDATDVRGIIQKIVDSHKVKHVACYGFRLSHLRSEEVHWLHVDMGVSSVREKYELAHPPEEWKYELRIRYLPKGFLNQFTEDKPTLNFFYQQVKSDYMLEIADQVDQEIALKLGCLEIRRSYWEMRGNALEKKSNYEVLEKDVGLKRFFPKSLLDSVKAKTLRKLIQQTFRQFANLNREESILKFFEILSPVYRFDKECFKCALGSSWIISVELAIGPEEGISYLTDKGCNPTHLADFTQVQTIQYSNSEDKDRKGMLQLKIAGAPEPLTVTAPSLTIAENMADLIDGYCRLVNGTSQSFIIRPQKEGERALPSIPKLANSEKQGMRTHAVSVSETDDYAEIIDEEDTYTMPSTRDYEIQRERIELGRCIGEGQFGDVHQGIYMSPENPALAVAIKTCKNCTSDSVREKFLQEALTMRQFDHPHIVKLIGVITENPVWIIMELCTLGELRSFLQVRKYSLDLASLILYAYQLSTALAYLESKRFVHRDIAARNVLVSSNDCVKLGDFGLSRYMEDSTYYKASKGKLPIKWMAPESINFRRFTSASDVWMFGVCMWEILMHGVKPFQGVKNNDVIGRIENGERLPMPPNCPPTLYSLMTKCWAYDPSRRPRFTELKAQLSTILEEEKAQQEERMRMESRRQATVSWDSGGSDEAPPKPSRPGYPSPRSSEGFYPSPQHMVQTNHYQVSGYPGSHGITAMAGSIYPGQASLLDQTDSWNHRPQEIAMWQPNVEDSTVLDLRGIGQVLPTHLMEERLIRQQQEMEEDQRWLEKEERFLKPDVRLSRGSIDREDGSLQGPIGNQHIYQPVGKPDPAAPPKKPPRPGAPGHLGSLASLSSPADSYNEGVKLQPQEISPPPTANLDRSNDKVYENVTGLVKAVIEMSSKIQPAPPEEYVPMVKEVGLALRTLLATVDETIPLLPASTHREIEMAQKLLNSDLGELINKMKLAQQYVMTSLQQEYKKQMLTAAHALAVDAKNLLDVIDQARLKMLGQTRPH
Chain of PYK2 (Q14289 whole entry): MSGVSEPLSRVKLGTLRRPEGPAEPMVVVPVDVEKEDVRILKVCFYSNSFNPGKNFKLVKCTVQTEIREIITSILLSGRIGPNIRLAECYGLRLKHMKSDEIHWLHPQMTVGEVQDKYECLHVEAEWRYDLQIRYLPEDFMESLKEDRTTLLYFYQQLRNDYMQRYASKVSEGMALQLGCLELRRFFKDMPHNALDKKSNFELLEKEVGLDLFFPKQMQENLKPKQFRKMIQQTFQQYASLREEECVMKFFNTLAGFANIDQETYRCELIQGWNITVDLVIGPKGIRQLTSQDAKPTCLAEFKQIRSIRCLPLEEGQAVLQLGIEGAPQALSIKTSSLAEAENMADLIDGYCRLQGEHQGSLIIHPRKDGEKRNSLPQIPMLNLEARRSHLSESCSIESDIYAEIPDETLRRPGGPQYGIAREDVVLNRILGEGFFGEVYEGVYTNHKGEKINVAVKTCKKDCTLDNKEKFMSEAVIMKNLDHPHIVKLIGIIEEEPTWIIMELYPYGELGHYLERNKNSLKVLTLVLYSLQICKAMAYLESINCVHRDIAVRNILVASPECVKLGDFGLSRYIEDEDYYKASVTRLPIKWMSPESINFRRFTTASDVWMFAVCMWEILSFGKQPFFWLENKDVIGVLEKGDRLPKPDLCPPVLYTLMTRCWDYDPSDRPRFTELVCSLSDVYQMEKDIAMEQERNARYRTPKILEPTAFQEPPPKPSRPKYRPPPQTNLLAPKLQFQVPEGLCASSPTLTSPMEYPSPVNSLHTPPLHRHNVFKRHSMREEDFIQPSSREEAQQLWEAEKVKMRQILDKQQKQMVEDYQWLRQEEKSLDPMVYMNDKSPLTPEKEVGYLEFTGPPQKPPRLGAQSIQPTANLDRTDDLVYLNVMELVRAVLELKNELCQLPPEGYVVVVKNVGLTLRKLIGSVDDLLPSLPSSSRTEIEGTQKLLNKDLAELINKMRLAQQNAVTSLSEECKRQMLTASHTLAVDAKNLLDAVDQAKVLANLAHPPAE

Row | IC50 (FAK) [nM] | IC50 (PYK2) [nM] | Compound
1 | < 20 | < 20 | COc1cc(N2CCOCC2)ccc1Nc1nc2c(c(Nc3ccccc3S(=O)(=O)NC3CCC3)n1)[C@H](C)CN2 [Example 36, (S)—N-cyclobutyl-2-(2-(2-methoxy-4-morpholinophenylamino)-5-methyl-6,7-dihydro-5H-pyrrolo[2,3-d]pyrimidin-4-ylamino)benzenesulfonamide]
2 | < 20 | < 20 | CNC(=O)c1ccccc1Nc1nc(Nc2ccc(N3CCOCC3)cc2OC)nc2c1C(C)(C)CN2 [Example 37, 2-(2-(2-methoxy-4-morpholinophenylamino)-5,5-dimethyl-6,7-dihydro-5H-pyrrolo[2,3-d]pyrimidin-4-ylamino)-N-methylbenzamide]
3 | < 50 | < 200 | COc1cc(N2CCOCC2)ccc1Nc1nc2c(c(Nc3ccccc3S(=O)(=O)N(C)C)n1)CCN2 [Example 38, 2-(2-(2-methoxy-4-morpholinophenylamino)-6,7-dihydro-5H-pyrrolo[2,3-d]pyrimidin-4-ylamino)-N,N-dimethylbenzenesulfonamide]
4 | < 50 | < 100 | CCCCNS(=O)(=O)c1ccccc1Nc1nc(Nc2ccc(N3CCOCC3)cc2OC)nc2c1CCN2 [Example 39, N-butyl-2-(2-(2-methoxy-4-morpholinophenylamino)-6,7-dihydro-5H-pyrrolo[2,3-d]pyrimidin-4-ylamino)benzenesulfonamide]
5 | < 20 | < 20 | COc1cc(N2CCOCC2)ccc1Nc1nc2c(c(Nc3ccccc3S(=O)(=O)NC(C)C)n1)CCN2 [Example 40, N-isopropyl-2-(2-(2-methoxy-4-morpholinophenylamino)-6,7-dihydro-5H-pyrrolo[2,3-d]pyrimidin-4-ylamino)benzenesulfonamide]
6 | < 50 | < 200 | COc1cc(N2CCOCC2)ccc1Nc1nc2c(c(Nc3ccccc3S(N)(=O)=O)n1)CCN2 [Example 41, 2-(2-(2-methoxy-4-morpholinophenylamino)-6,7-dihydro-5H-pyrrolo[2,3-d]pyrimidin-4-ylamino)benzenesulfonamide]
7 | < 20 | < 50 | COc1cc(N2CCOCC2)ccc1Nc1nc2c(c(Nc3ccccc3S(=O)(=O)NC3CC3)n1)CCN2 [Example 42, N-cyclopropyl-2-(2-(2-methoxy-4-morpholinophenylamino)-6,7-dihydro-5H-pyrrolo[2,3-d]pyrimidin-4-ylamino)benzenesulfonamide]
8 | < 100 | < 20 | CCNS(=O)(=O)c1ccccc1Nc1nc(Nc2ccc(N3CCOCC3)cc2OC)nc2c1CCN2 [Example 43, N-ethyl-2-(2-(2-methoxy-4-morpholinophenylamino)-6,7-dihydro-5H-pyrrolo[2,3-d]pyrimidin-4-ylamino)benzenesulfonamide]
9 | < 20 | < 20 | CCC(C)NS(=O)(=O)c1ccccc1Nc1nc(Nc2ccc(N3CCOCC3)cc2OC)nc2c1CCN2 (stereo not drawn) [Example 44, N-sec-butyl-2-(2-(2-methoxy-4-morpholinophenylamino)-6,7-dihydro-5H-pyrrolo[2,3-d]pyrimidin-4-ylamino)benzenesulfonamide]
10 | < 100 | < 100 | COc1cc(N2CCOCC2)ccc1Nc1nc2c(c(Nc3ccccc3S(=O)(=O)NCC(C)C)n1)CCN2 [Example 45, N-isobutyl-2-(2-(2-methoxy-4-morpholinophenylamino)-6,7-dihydro-5H-pyrrolo[2,3-d]pyrimidin-4-ylamino)benzenesulfonamide]
11 | < 200 | < 100 | COc1cc(N2CCOCC2)ccc1Nc1nc2c(c(Nc3ccccc3S(=O)(=O)NC(C)(C)C)n1)CCN2 [Example 47, N-tert-butyl-2-(2-(2-methoxy-4-morpholinophenylamino)-6,7-dihydro-5H-pyrrolo[2,3-d]pyrimidin-4-ylamino)benzenesulfonamide]
12 | < 100 | < 100 | COCCCNS(=O)(=O)c1ccccc1Nc1nc(Nc2ccc(N3CCOCC3)cc2OC)nc2c1CCN2 [Example 48, 2-(2-(2-methoxy-4-morpholinophenylamino)-6,7-dihydro-5H-pyrrolo[2,3-d]pyrimidin-4-ylamino)-N-(3-methoxypropyl)benzenesulfonamide]
13 | < 500 | < 500 | COc1cc(N2CCOCC2)ccc1Nc1nc2c(c(Nc3ccccc3S(=O)(=O)NCCN(C)C)n1)CCN2 [Example 49, N-(2-(dimethylamino)ethyl)-2-(2-(2-methoxy-4-morpholinophenylamino)-6,7-dihydro-5H-pyrrolo[2,3-d]pyrimidin-4-ylamino)benzenesulfonamide]
14 | < 50 | < 50 | COCCNS(=O)(=O)c1ccccc1Nc1nc(Nc2ccc(N3CCOCC3)cc2OC)nc2c1CCN2 [Example 50, 2-(2-(2-methoxy-4-morpholinophenylamino)-6,7-dihydro-5H-pyrrolo[2,3-d]pyrimidin-4-ylamino)-N-(2-methoxyethyl)benzenesulfonamide]

Continued, compound first:

Row | Compound | IC50 (FAK) [nM] | IC50 (PYK2) [nM]
15 | COc1cc(N2CCOCC2)ccc1Nc1nc2c(c(Nc3cccc(C)n3)n1)CCN2 [Example 12, N^2-(2-methoxy-4-morpholinophenyl)-N^4-(6-methylpyridin-2-yl)-6,7-dihydro-5H-pyrrolo[2,3-d]pyrimidine-2,4-diamine] | < 100 | < 100
16 | CNC(=O)c1ccccc1Nc1nc(Nc2ccc(N3CCOCC3)cc2CO)nc2c1CCN2 [Example 14, 2-(2-(2-(hydroxymethyl)-4-morpholinophenylamino)-6,7-dihydro-5H-pyrrolo[2,3-d]pyrimidin-4-ylamino)-N-methylbenzamide] | > 1000 | > 1000
17 | CNC(=O)c1ccccc1Nc1nc(Nc2cccc3c2OCCO3)nc2c1CCN2 [Example 15, 2-(2-(2,3-dihydrobenzo[b][1,4]dioxin-5-ylamino)-6,7-dihydro-5H-pyrrolo[2,3-d]pyrimidin-4-ylamino)-N-methylbenzamide] | < 500 | < 500
18 | CNC(=O)c1ccccc1Nc1nc(Nc2ccc(N3CCOCC3)c3c2OCCO3)nc2c1CCN2 [Example 16, N-methyl-2-(2-(8-morpholino-2,3-dihydrobenzo[b][1,4]dioxin-5-ylamino)-6,7-dihydro-5H-pyrrolo[2,3-d]pyrimidin-4-ylamino)benzamide] | < 500 | < 200
19 | CCN1C(=O)CCCc2c1ccc(Nc1nc3c(c(Nc4ccccc4C(=O)NC)n1)CCN3)c2OC [Example 17, 2-(2-(1-ethyl-6-methoxy-2-oxo-2,3,4,5-tetrahydro-1H-benzo[b]azepin-7-ylamino)-6,7-dihydro-5H-pyrrolo[2,3-d]pyrimidin-4-ylamino)-N-methylbenzamide] | < 1000 | < 200
20 | CNC(=O)c1ccccc1Nc1nc(Nc2cccc3ccoc23)nc2c1CCN2 [Example 19, 2-(2-(benzofuran-7-ylamino)-6,7-dihydro-5H-pyrrolo[2,3-d]pyrimidin-4-ylamino)-N-methylbenzamide] | < 200 | < 100
21 | CNC(=O)c1ccccc1Nc1nc(Nc2cc(C)nn2C)nc2c1CCN2 [Example 20, 2-(2-(1,3-dimethyl-1H-pyrazol-5-ylamino)-6,7-dihydro-5H-pyrrolo[2,3-d]pyrimidin-4-ylamino)-N-methylbenzamide] | < 1000 | < 500
22 | CNC(=O)c1ccccc1Nc1nc(Nc2cc(OC)c(OC)c(OC)c2)nc2c1CCN2 [Example 21, N-methyl-2-(2-(3,4,5-trimethoxyphenylamino)-6,7-dihydro-5H-pyrrolo[2,3-d]pyrimidin-4-ylamino)benzamide] | < 1000 | < 300
23 | CNC(=O)c1ccccc1Nc1nc(Nc2cccc3c2ccn3CCCN2CCOCC2)nc2c1CCN2 [Example 22, N-methyl-2-(2-(1-(3-morpholinopropyl)-1H-indol-4-ylamino)-6,7-dihydro-5H-pyrrolo[2,3-d]pyrimidin-4-ylamino)benzamide] | < 100 | < 200
24 | CNC(=O)c1ccccc1Nc1nc(Nc2ccc(N3CCOCC3)cc2OC)nc2c1[C@H](C)CN2 [Example 35, (S)-2-(2-(2-methoxy-4-morpholinophenylamino)-5-methyl-6,7-dihydro-5H-pyrrolo[2,3-d]pyrimidin-4-ylamino)-N-methylbenzamide] | < 20 | < 20
